“Also recorded” adds a separate entry of the source.
Experiments:
NALM 6 cells [1] = assay type: binding, human
EBI1 [2] = target: T1, EBI1 (Homo sapiens, UniProt P32248)
T1 sequence (P32248 25-378): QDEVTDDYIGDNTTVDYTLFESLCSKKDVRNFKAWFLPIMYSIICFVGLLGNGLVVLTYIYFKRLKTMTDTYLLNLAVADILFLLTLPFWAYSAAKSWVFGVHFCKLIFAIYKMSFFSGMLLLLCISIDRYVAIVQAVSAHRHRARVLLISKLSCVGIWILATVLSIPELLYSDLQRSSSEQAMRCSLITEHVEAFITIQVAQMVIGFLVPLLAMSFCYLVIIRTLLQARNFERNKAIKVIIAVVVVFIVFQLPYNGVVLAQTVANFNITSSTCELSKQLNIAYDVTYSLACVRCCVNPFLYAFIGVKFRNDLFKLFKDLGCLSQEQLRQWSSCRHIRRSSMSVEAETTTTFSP
Text: (§1) Data are plotted as the concentration of free ^3 H-DPDPE (x-axis) vs specific binding of ^3 H-DPDPE (y-axis).

opiate μ-receptor = conditions: sub-antinociceptive doses; cited from earlier work
EBI1 [3] = target: T1, EBI1; test: biochemical
Text: as §1

NALM 6 cells [4] = test: Migration (chemotaxis) of NALM 6 pre-B ALL cells; assay type: cell-based, human; conditions: for % Response (with/without naloxone): 90 min, 10 µM
human T cells [5] = test: Migration of human peripheral blood T cells; assay type: cell-based
in vitro = conditions: human, nalm 6 cells
NALM 6 cells [6] = test: Light scatter analysis of morphological response of NALM 6 cells; assay type: cell-based, human
Protocol: FIG. 2, Panels A and B. Methionine-enkephalin induces a morphological change in NALM 6 cells. […] Analysis of forward and right angle light scatter was performed using a Becton Dickinson FACS SCAN flow cytometer as described (Sklar et al., 1984). Histograms of light scatter were obtained by analyzing 10,000 cells per sample. Data are expressed as mean channel number (y-axis) vs concentration of MET-ENK (x-axis).
Forward and right angle light scatter analysis of the morphological response to MET-ENK: The effect of MET-ENK on cell morphology were measured using flow cytometric analysis of forward and right angle light scatter as previously described (Sklar et al., 1984). For these studies 10^6 cells were resuspended in one-ml of PBS, activated by the addition of MET-ENK or maintained in the PBS buffer alone, and then, incubated for 5 minutes at 37° C. […] Samples were analyzed on a Becton Dickinson FACS SCAN flow cytometer with excitation at 488 nm (Sklar et al., 1984). Histograms of light scattering were obtained by analyzing 10,000 cells for each sample. Data analysis was performed using the Lysys System software package.

EBI1 [7] = target: T1, EBI1; conditions: COS (EBI 1); MET-ENK 0.01 nM, naloxone 10 μM, forskolin 0.1 μM; controls 61.2 and 63.5
LAZ 221 cells = test: Flow cytometry of surface molecule expression on LAZ 221 cells; assay type: cell-based, human; conditions: LAZ 221, 100 fold excess of naloxone
Protocol: FIG. 4, Panels A-C. […] Data are presented as mean fluorescence intensities measured for 10,000 cells labeled with anti-CD9 or CD10 mAb. In Panel A, the NALM 6 Cells were incubated with MET-ENK (10^-7 M) for the times indicated. In Panel B, the LAZ 221 cells were incubated with MET-ENK at the doses indicated for 5 minutes at 37° C. […] The anti-CD9 and anti-CD10 mAb used for these experiments were of the IgG2a isotype.
Immunofluorescence Staining and Flow Cytometric Analysis of Cell Surface Molecules: Cells were resuspended at 1×10^6 /ml in PBS and then incubated for periods of 5 to 120 minutes at 37° C. with MET-ENK at doses of 0 to 10^-5 M. Incubations were terminated by transferring samples to an ice bath and then pelleting the cells by centrifugation at 1800 rpm for 5 minutes at 4° C.
Immunofluorescence staining was carried out in 4-ml tubes maintained in an ice water bath. […] Cells were subsequently fixed within a 2% solution of formalin and maintained in the dark at 10° C. until analyzed.
Flow cytometric analysis was performed using a FACS SCAN Flow Cytometer (Becton Dickinson, Mountain View, Calif.) equipped with a HP9000 Series computer and the Lysys System software analysis package. Data were collected as histograms depicting the fluorescence intensity for 5,000 to 10,000 cells per sample.
The non-binding IgG1 MOPC myeloma protein, anti-macrophage/monocyte specific CD14 (MO2; IgG2) and anti-T cell specific CD3 (OKT3; IgG2a) mAb were employed as nonreactive controls for measuring the autofluorescence of B cells.

COS (Vector Control) = test: cAMP accumulation in COS cells (vector control); assay type: cell-based, monkey; conditions: COS (Vector Control); MET-ENK 0.01 nM, naloxone 10 μM, forskolin 0.1 μM; controls 40.2 and 38.8
NALM 6 cells [8] = test: [Ca^2+ ]i response of NALM 6 / leukemia cells (Indo-1, flow cytometry); assay type: cell-based, human
Protocol: FIG. 15, Panels A-C. […] Cells were labeled with Indo-1 as previously described (Rabinovitch et al., 1986), washed twice in serum-free medium and held at 4° C. until flow cytometric analysis. The violet/blue fluorescence ratio was measured using previously described methods (Rabinovitch et al., 1986). Nonstimulated cells (measured in medium, alone) were used to establish a relative violet/blue ratio arbitrarily set at 1.0 as previously described (Rabinovitch). Calibration of [Ca^2+ ]i was carried out as previously described by Rabinovitch et al (1986) using the formula: [formula]
Rmax values were determined by measuring the maximum shift in indo violet/blue fluorescence for cells treated with 4 μM ionomycin. Rmin was measured as the minimum ratio for the violet blue fluorescence of ionomycin treated cells following the addition of 8 mM EGTA. […] The Kd (effective dissociation constant) was set at 250 nM.

NALM 6 cells [9] = test: MET-ENK-FITC binding to NALM 6 cells (flow cytometry, Scatchard); parameters: species or system human; conditions: 5 μM naloxone
PBMC = conditions: cited from earlier work
[10] = system: lymphocytes and macrophages; conditions: injection into cerebroventricles of rodents; cited from earlier work
human T cells [11] = conditions: Heagy et al., 1990; cited from earlier work
PMN = conditions: Falke and Fischer, 1985; cited from earlier work
[12] = system: freshly isolated lymphocytes and EBV transformed cell lines; conditions: Borboni et al., 1989; cited from earlier work

## CC1(C)SSC(C)(C)[C@@H](NC(=O)[C@@H](N)Cc2ccc(O)cc2)C(=O)NCC(=O)N[C@@H](Cc2ccccc2)C(=O)N[C@H]1C(=O)O [DPDPE, [D-Pen^2,5]enkephalin]
NALM 6 cells [1]
  specific binding, % of total: 50-80%
EBI1 [2]
  binding to membranes of COS cells expressing lymphocyte R7G: specific, high affinity binding
Jurkat cells
  specific binding, % of total: 50-60%
Opiate μ-receptor
  effect on morphine antinociception: enhance the antinociception mediated via the opiate μ-receptor agonist morphine
EBI1 [3]
  Kd: 0.2 nM

## C=CCN1CC[C@]23c4c5ccc(O)c4O[C@H]2C(=O)CC[C@@]3(O)[C@H]1C5 [Naloxone]
NALM 6 cells [4]; MET-ENK 1 nM, naloxone 10^-5 M
  % Response (with/without naloxone): 43%
NALM 6 cells [4]; MET-ENK 100 nM, naloxone 10^-5 M
  % Response (with/without naloxone): 42%
NALM 6 cells [4]; migration to MET-ENK or spontaneous locomotion
  effect of naloxone on NALM 6 migration: inhibited the migration of NALM 6 cells to MET-ENK; also recorded: Spontaneous locomotion resulting from the random movement of unchallenged cells was equivalent for naloxone treated and nontreated cells
NALM 6 cells [4]; naloxone 10^-5 M, MET-ENK 100 nM
  cell counts, migration to MET-ENK with naloxone: 1476 cell counts
NALM 6 cells [4]; naloxone 10^-5 M, no MET-ENK, without naloxone 1647
  cell counts, spontaneous locomotion with naloxone: 1350 cell counts
NALM 6 cells [4]; spontaneous locomotion, naloxone 10^-5 M
  % Response (with/without naloxone): 82%
Human T cells [5]
  human lymphocyte / T cell migration: blocked the T cell chemotaxis to MET-ENK
In vitro
  viability at 10 µM: ≥ 96%
Jurkat cells; ^3 H-DADLE, ^3 H-DPDPE, ^3 H-U69,593
  reversal of agonist binding by naloxone: a portion of the binding of these highly selective opiate receptor agonists was reversed by naloxone
NALM 6 cells [6]; 5 minutes at 37° C.
  morphological response (light scatter) of NALM 6 cells: inhibited by preincubation with naloxone
NALM 6 cells [6]; vs PBS alone
  baseline light scatter, naloxone alone: shifted the baseline measurement below that for the control
EBI1 [7]
  cAMP: 76.4 fmoles/cell × 10^3
LAZ 221 cells
  effect on MET-ENK induction of CD9: totally blocked
COS (Vector Control)
  cAMP: 31.4 fmoles/cell × 10^3
NALM 6 cells [8]
  [Ca^2+ ]i response: inhibited by naloxone
NALM 6 cells [9]
  effect of naloxone on MET-ENK(-FITC) binding: in the presence of naloxone this association is decreased; also recorded: blocked

## β-END: polypeptide β-endorphin
PBMC; PBMC
  blastogenic responses to T and B cell lectins: augment the blastogenic responses of PBMC to both T and B cell lectins
PBMC; lectin stimulated PBMC
  IFN-γ production: enhance IFN-γ production
Human T cells [5]
  human lymphocyte / T cell migration: stimulate human lymphocyte migration
[10]
  lymphocyte and macrophage migration into ventricles: elicited lymphocyte and macrophage migration into the ventricles
Human T cells [11]
  human T cell migration: potent stimulants for the migration of isolated human T cells
PMN
  onset of PMN morphological response: ≤ 2 minutes
[12]
  sensitivity of binding to naloxone: insensitive to naloxone and not displaced by synthetic peptides containing MET-ENK residues

From US5753516A, “Screening method for ligands of the EBI-1 receptor” (priority 1995, dated 1998)
